Assay results taken from patent publication US12215140B2, “Method of stabilizing protein contained in specimen and solution for stabilizing protein contained in specimen” (EIKEN KAGAKU KABUSHIKI KAISHA, priority 2018, dated 2025).

Test system: hemoglobin-haptoglobin complex
Test: Stability of hemoglobin (as hemoglobin-haptoglobin complex) in samples preserved at 37° C. in preservation solution containing 1 unit/L haptoglobin, Hb measured by latex agglutination method (Examples 1 to 7)
Parameters: species or system human
Details: for Hb concentration / Recovery ratio with respect to Hb concentration after 0 days: 37° C.
Method in brief: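 Latex agglutination (anti-human hemoglobin rabbit polyclonal latex) measured Hb in samples stored at 37 °C up to 21 days; values expressed as % recovery versus day 0. Preservation solution: HEPES 40 mmol/L pH 6.8, BSA 0.1%, NaN3 0.1%, haptoglobin 1 unit/L, phenylboronic acid 0–100 mmol/L, optional sugars; ~300 µg/L Hb, 0.5% feces or none.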

[1] = Feces 1, sugar 50 mmol/L + phenylboronic acid 15 mmol/L, 0 days
[2] = Feces 1, sugar 50 mmol/L + phenylboronic acid 15 mmol/L, 7 days
[3] = Feces 1, sugar 50 mmol/L + phenylboronic acid 15 mmol/L, 14 days
[4] = Feces 1, sugar 50 mmol/L + phenylboronic acid 15 mmol/L, 21 days
[5] = Feces 1, sugar 100 mmol/L + phenylboronic acid 15 mmol/L, 0 days
[6] = Feces 1, sugar 100 mmol/L + phenylboronic acid 15 mmol/L, 7 days
[7] = Feces 1, sugar 100 mmol/L + phenylboronic acid 15 mmol/L, 14 days
[8] = Feces 1, sugar 100 mmol/L + phenylboronic acid 15 mmol/L, 21 days
[9] = Feces 1, sugar 100 mmol/L, no phenylboronic acid, 0 days
[10] = Feces 1, sugar 100 mmol/L, no phenylboronic acid, 7 days
[11] = Feces 1, sugar 100 mmol/L, no phenylboronic acid, 14 days
[12] = Feces 1, sugar 100 mmol/L, no phenylboronic acid, 21 days
[13] = Feces 2, sugar 50 mmol/L + phenylboronic acid 15 mmol/L, 0 days
[14] = Feces 2, sugar 50 mmol/L + phenylboronic acid 15 mmol/L, 7 days
[15] = Feces 2, sugar 50 mmol/L + phenylboronic acid 15 mmol/L, 14 days
[16] = Feces 2, sugar 50 mmol/L + phenylboronic acid 15 mmol/L, 21 days
[17] = Feces 2, sugar 100 mmol/L + phenylboronic acid 15 mmol/L, 0 days
[18] = Feces 2, sugar 100 mmol/L + phenylboronic acid 15 mmol/L, 7 days
[19] = Feces 2, sugar 100 mmol/L + phenylboronic acid 15 mmol/L, 14 days
[20] = Feces 2, sugar 100 mmol/L + phenylboronic acid 15 mmol/L, 21 days
[21] = Feces 2, sugar 100 mmol/L, no phenylboronic acid, 0 days
[22] = Feces 2, sugar 100 mmol/L, no phenylboronic acid, 7 days
[23] = Feces 2, sugar 100 mmol/L, no phenylboronic acid, 14 days
[24] = Feces 2, sugar 100 mmol/L, no phenylboronic acid, 21 days
[25] = Feces 3, sugar 50 mmol/L + phenylboronic acid 15 mmol/L, 0 days
[26] = Feces 3, sugar 50 mmol/L + phenylboronic acid 15 mmol/L, 7 days
[27] = Feces 3, sugar 50 mmol/L + phenylboronic acid 15 mmol/L, 14 days
[28] = Feces 3, sugar 50 mmol/L + phenylboronic acid 15 mmol/L, 21 days
[29] = Feces 3, sugar 100 mmol/L + phenylboronic acid 15 mmol/L, 0 days
[30] = Feces 3, sugar 100 mmol/L + phenylboronic acid 15 mmol/L, 7 days
[31] = Feces 3, sugar 100 mmol/L + phenylboronic acid 15 mmol/L, 14 days
[32] = Feces 3, sugar 100 mmol/L + phenylboronic acid 15 mmol/L, 21 days
[33] = Feces 3, sugar 100 mmol/L, no phenylboronic acid, 0 days
[34] = Feces 3, sugar 100 mmol/L, no phenylboronic acid, 7 days
[35] = Feces 3, sugar 100 mmol/L, no phenylboronic acid, 14 days
[36] = Feces 3, sugar 100 mmol/L, no phenylboronic acid, 21 days
[37] = No feces, sugar 50 mmol/L + phenylboronic acid 15 mmol/L, 0 days
[38] = No feces, sugar 50 mmol/L + phenylboronic acid 15 mmol/L, 7 days
[39] = No feces, sugar 50 mmol/L + phenylboronic acid 15 mmol/L, 14 days
[40] = No feces, sugar 50 mmol/L + phenylboronic acid 15 mmol/L, 21 days
[41] = No feces, sugar 100 mmol/L + phenylboronic acid 15 mmol/L, 7 days
[42] = No feces, sugar 100 mmol/L + phenylboronic acid 15 mmol/L, 14 days
[43] = No feces, sugar 100 mmol/L + phenylboronic acid 15 mmol/L, 21 days
[44] = No feces, sugar 100 mmol/L, no phenylboronic acid, 0 days
[45] = No feces, sugar 100 mmol/L, no phenylboronic acid, 7 days
[46] = No feces, sugar 100 mmol/L, no phenylboronic acid, 14 days
[47] = No feces, sugar 100 mmol/L, no phenylboronic acid, 21 days

For O=C(CO)[C@@H](O)[C@H](O)[C@H](O)CO [Fructose, fructose], the Hb concentration [1] was 297 µg/L, the “Recovery ratio with respect to Hb concentration after 0 days” value (shortened to “Recovery ratio … after 0 days”) [1] was 100% and the Hb concentration [2] was 294 µg/L. For the same compound, the “Recovery ratio … after 0 days” value [2] was 99%, the Hb concentration [3] was 285 µg/L and the “Recovery ratio … after 0 days” value [3] was 96%. The Hb concentration [4] was 280 µg/L, the “Recovery ratio … after 0 days” value [4] was 94% and the Hb concentration [5] was 287 µg/L. The “Recovery ratio … after 0 days” value [5] was 100%, the Hb concentration [6] was 276 µg/L and the “Recovery ratio … after 0 days” value [6] was 96%. For the same compound, the Hb concentration [7] was 247 µg/L, the “Recovery ratio … after 0 days” value [7] was 86% and the Hb concentration [8] was 228 µg/L. For the same compound, the “Recovery ratio … after 0 days” value [8] was 79%, the Hb concentration [9] was 285 µg/L and the “Recovery ratio … after 0 days” value [9] was 100%. For the same compound, the Hb concentration [10] was 127 µg/L, the “Recovery ratio … after 0 days” value [10] was 45% and the Hb concentration [11] was 85 µg/L. The “Recovery ratio … after 0 days” value [11] was 30%, the Hb concentration [12] was 81 µg/L and the “Recovery ratio … after 0 days” value [12] was 28%. For the same compound, the Hb concentration [13] was 270 µg/L, the “Recovery ratio … after 0 days” value [13] was 100% and the Hb concentration [14] was 275 µg/L. The “Recovery ratio … after 0 days” value [14] was 102%, the Hb concentration [15] was 243 µg/L and the “Recovery ratio … after 0 days” value [15] was 90%. For the same compound, the Hb concentration [16] was 222 µg/L, the “Recovery ratio … after 0 days” value [16] was 82% and the Hb concentration [17] was 280 µg/L. For the same compound, the “Recovery ratio … after 0 days” value [17] was 100%, the Hb concentration [18] was 264 µg/L and the “Recovery ratio … after 0 days” value [18] was 94%. For the same compound, the Hb concentration [19] was 235 µg/L, the “Recovery ratio … after 0 days” value [19] was 84% and the Hb concentration [20] was 212 µg/L. The “Recovery ratio … after 0 days” value [20] was 76%, the Hb concentration [21] was 273 µg/L and the “Recovery ratio … after 0 days” value [21] was 100%. The Hb concentration [22] was 100 µg/L, the “Recovery ratio … after 0 days” value [22] was 37% and the Hb concentration [23] was 56 µg/L. For the same compound, the “Recovery ratio … after 0 days” value [23] was 21%, the Hb concentration [24] was 35 µg/L and the “Recovery ratio … after 0 days” value [24] was 13%. The Hb concentration [25] was 272 µg/L, the “Recovery ratio … after 0 days” value [25] was 100% and the Hb concentration [26] was 238 µg/L. The “Recovery ratio … after 0 days” value [26] was 88%, the Hb concentration [27] was 218 µg/L and the “Recovery ratio … after 0 days” value [27] was 80%. For the same compound, the Hb concentration [28] was 203 µg/L, the “Recovery ratio … after 0 days” value [28] was 75% and the Hb concentration [29] was 276 µg/L. The “Recovery ratio … after 0 days” value [29] was 100%, the Hb concentration [30] was 244 µg/L and the “Recovery ratio … after 0 days” value [30] was 88%. For the same compound, the Hb concentration [31] was 222 µg/L, the “Recovery ratio … after 0 days” value [31] was 80% and the Hb concentration [32] was 204 µg/L. For the same compound, the “Recovery ratio … after 0 days” value [32] was 74%, the Hb concentration [33] was 265 µg/L and the “Recovery ratio … after 0 days” value [33] was 100%. For the same compound, the Hb concentration [34] was 83 µg/L, the “Recovery ratio … after 0 days” value [34] was 31% and the Hb concentration [35] was 41 µg/L. The “Recovery ratio … after 0 days” value [35] was 15%, the Hb concentration [36] was 39 µg/L and the “Recovery ratio … after 0 days” value [36] was 15%. For the same compound, the Hb concentration [37] was 286 µg/L, the “Recovery ratio … after 0 days” value [37] was 100% and the Hb concentration [38] was 255 µg/L. The “Recovery ratio … after 0 days” value [38] was 89%, the Hb concentration [39] was 261 µg/L and the “Recovery ratio … after 0 days” value [39] was 91%. The Hb concentration [40] was 275 µg/L, the “Recovery ratio … after 0 days” value [40] was 96% and the “Recovery ratio … after 0 days” value (No feces, sugar 100 mmol/L + phenylboronic acid 15 mmol/L, 0 days) was 100%. For the same compound, the Hb concentration [41] was 245 µg/L, the “Recovery ratio … after 0 days” value [41] was 87% and the Hb concentration [42] was 251 µg/L. For the same compound, the “Recovery ratio … after 0 days” value [42] was 89%, the Hb concentration [43] was 262 µg/L and the “Recovery ratio … after 0 days” value [43] was 93%. For the same compound, the Hb concentration [44] was 250 µg/L, the “Recovery ratio … after 0 days” value [44] was 100% and the Hb concentration [45] was 215 µg/L. The “Recovery ratio … after 0 days” value [45] was 86%, the Hb concentration [46] was 196 µg/L and the “Recovery ratio … after 0 days” value [46] was 78%. For the same compound, the Hb concentration [47] was 177 µg/L, the “Recovery ratio … after 0 days” value [47] was 71% and the “recovery ratio of hemoglobin in the samples containing fecal specimens” value (sugar 100 mmol/L, preservation solutions containing no phenylboronic acid) was “does not improve”. The “recovery ratio of hemoglobin in the sample” value (sugar 50 or 100 mmol/L further added to phenylboronic acid 15 mmol/L, Feces 1, Feces 2, Feces 3) was “further improved”.
